We go through twelve molecules from patent US20100144759A1, “NOVEL N-(FLUORO-PYRAZINYL)-PHENYLSULFONAMIDES AS MODULATORS OF CHEMOKINE RECEPTOR CCR4” (AstraZeneca AB, priority 2005, published 2010).

For data set [1], the system named is salmonella typhimurium LT2 strains TA98 and TA100. The data set can be described thus: Metabolite testing: mutagenicity (Maron and Ames test). In kind it is cell-based. The note with it: strains TA98 and TA100, with or without metabolic activation (rat liver S9). The protocol:
5-Fluoro-3-methoxy-2-pyrazinamine and 6-fluoro-3-methoxy-2-pyrazinamine were tested for mutagenicity according to the test procedure of Maron and Ames described in Mutation Res. 1983; 113:173-215 using salmonella typhimurium LT2 strains TA98 and TA100. For metabolic activation a homogenate of liver from Aroclor 1254-treated rats (post-mitochondrial fraction (S9) purchased from Molecular Toxicology Inc., Boone, N.C., USA) was added to agar plates (without histidine) together with the test compound and the bacterial tester strains; the complete activation system employed was: phosphate buffer (0.1 mol/L, pH 7.4):100 mmol/L; magnesium chloride: 8 mmol/L; potassium chloride: 33 mmol/L; nicotinamide adenine dinucleotide phosphate: 4 mmol/L; glucose-6-phosphate:5 mmol/L; and rat liver homogenate (S9 fraction):10% v/v. The mean number of revertant colonies and sample standard deviation (from control plates) were calculated for each test group. A test compound was considered to be mutagenic when the following criteria were satisfied: i) the number of revertant colonies in any strain increased in the presence of one or more dose of the test compound, with or without metabolic activation ii) there was a dose-related increase in the number of revertant colonies, and iii) any increase was reproducible.
On the technique in general: The Ames test detects mutagens through reverse mutation in bacteria.

In data set [2] the target is T1, CCR4 (Homo sapiens, UniProt P51679).
T1 construct: host or cells: CHO-K1
T1 sequence (P51679 1-360): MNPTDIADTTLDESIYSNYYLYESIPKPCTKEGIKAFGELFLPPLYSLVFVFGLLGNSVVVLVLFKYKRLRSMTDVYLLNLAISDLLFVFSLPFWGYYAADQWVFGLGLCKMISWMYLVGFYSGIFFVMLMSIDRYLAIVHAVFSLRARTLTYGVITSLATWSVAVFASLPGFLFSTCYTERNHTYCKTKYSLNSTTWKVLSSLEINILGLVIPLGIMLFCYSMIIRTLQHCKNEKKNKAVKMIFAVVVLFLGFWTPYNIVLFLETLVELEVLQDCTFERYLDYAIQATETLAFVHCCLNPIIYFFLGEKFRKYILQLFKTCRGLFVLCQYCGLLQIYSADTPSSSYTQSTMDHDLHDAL
The experiment in a line: Predicted whole blood potency. As to conditions: calculated: CCR4 pIC50+Log((100−% Bound)/100). The protocol:
Predicted whole blood potency is a measure of the combined effects of CCR4 activity and plasma protein binding, and is calculated by the formula: Whole Blood Potency=CCR4 pIC50+Log((100−% Bound)/100).

A short description of data set [3]: Measurement of plasma protein binding (equilibrium dialysis). Type of data set: in vitro ADME. As to conditions: pooled human plasma, human plasma vs buffer pH 7.4, 37° C., 10 μM compound, read-out: % Bound Human Plasma (converted). The procedure:
The extent of plasma protein binding was determined via equilibrium dialysis of a compound between human plasma and aqueous buffer at 37° C. and determination of the concentration of compound in the plasma and buffer by HPLC-MS/MS.
Dialysis cells (molecular weight cut-off 5000) were prepared by rinsing with water followed by soaking in the dialysis buffer for a minimum of 1 hour. The dialysis buffer was isotonic buffered saline pH 7.4. Stock solutions of compound in dimethylsulphoxide were prepared at a concentration of 1 mM. Frozen pooled Human plasma was obtained from volunteers.
The stock DMSO solution of a compound was added to the plasma at a ratio of 10 μl of DMSO to each ml of plasma.
Dialysis cells were then prepared and one half of the cell filled with 750 μl of dialysis buffer and the other half of the cell with 750 μl of plasma solution of compound. Once prepared the cells were sealed and immersed in a water bath at 37° C. These cells were then rotated for a minimum of 4 hours to equilibrate.
After equilibration 500 μl of the buffer samples were removed and added to HPLC vials along with 100 μl of plasma (sample in 6-fold diluted plasma), and 100 μl of the plasma samples were removed and added to HPLC vials along with 500 μl of dialysis buffer (sample in 6-fold diluted plasma).
The samples were then analysed using HPLC-MS/MS.
The concentration of compound in the samples were determined using MassLynx version 4.0 software (produced by Waters/Micromass) that automatically calculated a calibration curve and the concentration of compound in the cells. Plasma protein binding was determined from the calibration curve as the percentage of compound bound in human plasma (% bound) using the following equation wherein the factor in the numerator accounts for the small dilution of the aqueous samples with plasma and the factor of 6 in the denominator serves to correct for the 6-fold dilution of the plasma samples with buffer;
On the technique in general: Equilibrium dialysis compares concentrations on both sides of a semipermeable membrane.

The target of data set [4] is T1, CCR4. The data set can be described thus: FMAT whole cell binding assay. As to conditions: CHO-K1 cells expressing human recombinant CCR4; inhibition of FB-MDC binding; read-out: FMAT CCR4 pIC50 (converted). The procedure:
CHO-K1 cells stably expressing the human recombinant CCR4 receptor (Euroscreen; Brussels, Belgium) were cultured in NUT.MIX.F—12(HAM) medium with glutamax-1, containing 10% (v/v) foetal bovine serum and 400 μg ml^−1 geneticin.
Cells were harvested at approximately 70% confluence by treatment with a cell dissociation buffer, and seeded at 5×10^3 cells/100 μl culture medium into wells of a black Costar clear-bottomed 96-well microtitre plates. Plates were incubated overnight at 37° C. in 5% CO2 and used the following day.
Before use, the cell plates were washed twice with 100 μl Hanks balanced salt solution (HBSS).
After two hours incubation in the dark at room temperature, the plates were analysed in an FMAT8100 reader (Applied Biosystems) to measure fluorescence that was associated with binding of FB-MDC to the cells.

The structures appear in SMILES notation.

With `COc1nc(F)cnc1N` [5-fluoro-3-methoxy-2-pyrazinamine, 5-Fluoro-3-methoxy-2-pyrazinamine], in data set [1], the mutagenicity test result was “negative”.

For the molecule `COc1ncc(F)nc1N` [6-fluoro-3-methoxy-2-pyrazinamine], in data set [1], the mutagenicity test result was “negative”.

As to `COc1nc(Cl)cnc1NS(=O)(=O)c1cccc(Cl)c1Cl` [Ex. 5 WO03/059893, 2,3-dichloro-N-(5-chloro-3-methoxy-2-pyrazinyl)benzenesulphonamide, reference compound], in data set [2], the “Whole Blood Potency” value is on record as 5.2. In addition, the fraction unbound at 10 µM in data set [3] is 0.002. Further, the IC50 in data set [4] was 12.6 nM.

With `COc1nc(Br)cnc1NS(=O)(=O)c1cccc(Cl)c1Cl` [Ex. 8 WO03/059893, 2,3-dichloro-N-(5-bromo-3-methoxy-2-pyrazinyl)benzenesulphonamide, reference compound], the “Whole Blood Potency” value in data set [2] is recorded as 5.6. Moreover, in data set [3], the fraction unbound at 10 µM is 0.002. In addition, the IC50 in data set [4] was 5.01 nM.

`COc1nccnc1NS(=O)(=O)c1cccc(Cl)c1Cl` [Ex. 30 WO03/059893, 2,3-dichloro-N-(3-methoxy-2-pyrazinyl)benzenesulphonamide, reference compound]: the “Whole Blood Potency” value in data set [2] is 5.7. Moreover, the fraction unbound at 10 µM in data set [3] is 0.011. The IC50 in data set [4] is 20 nM.

On to `COc1nc(F)cnc1NS(=O)(=O)c1cccc(F)c1Cl` [Example 1, 2-Chloro-3-fluoro-N-(5-fluoro-3-methoxypyrazin-2-yl)-benzenesulfonamide], for which the “Whole Blood Potency” value in data set [2] is 6.3. Besides, the fraction unbound at 10 µM in data set [3] was 0.01. For the same molecule, the IC50 in data set [4] was 5.01 nM.

For `COc1nc(F)cnc1NS(=O)(=O)c1cccc(Cl)c1Cl` [Example 2, 2,3-dichloro-N-(5-fluoro-3-methoxypyrazin-2-yl)-benzenesulfonamide], the “Whole Blood Potency” value in data set [2] is on record as 6.3. Further, the fraction unbound at 10 µM in data set [3] is 0.006. The IC50 in data set [4] is 3.16 nM.

Regarding `COc1ncc(F)nc1NS(=O)(=O)c1cccc(Cl)c1Cl` [Example 3, 2,3-Dichloro-N-(6-fluoro-3-methoxypyrazin-2-yl)-benzenesulfonamide], the “Whole Blood Potency” value in data set [2] is given as 6.0. Further, the fraction unbound at 10 µM in data set [3] was 0.003. In addition, the IC50 in data set [4] was 3.16 nM.

`COc1nc(CO)c(F)nc1NS(=O)(=O)c1cccc(Cl)c1Cl` [Example 4, 2,3-Dichloro-N-[6-fluoro-5-(hydroxymethyl)-3-methoxypyrazin-2-yl]-benzenesulfonamide]: the “Whole Blood Potency” value in data set [2] was 5.9. Moreover, the fraction unbound at 10 µM in data set [3] was 0.013. In addition, the IC50 in data set [4] was 15.8 nM.

In the case of `COc1nc(F)cnc1NS(=O)(=O)c1cccc(Cl)c1F` [Example 5, 3-Chloro-2-fluoro-N-(5-fluoro-3-methoxypyrazin-2-yl)-benzenesulfonamide], the “Whole Blood Potency” value in data set [2] was 6.0. For the same molecule, the fraction unbound at 10 µM in data set [3] is 0.011. Also, the IC50 in data set [4] is 10 nM.

Regarding `COc1nc(F)c(CO)nc1NS(=O)(=O)c1cccc(Cl)c1Cl` [Example 6, 2,3-Dichloro-N-[5-fluoro-6-(hydroxymethyl)-3-methoxypyrazin-2-yl]-benzenesulfonamide], the “Whole Blood Potency” value in data set [2] is 5.9. Besides, the fraction unbound at 10 µM in data set [3] is 0.005. Besides, the IC50 in data set [4] was 6.31 nM.

As for `COc1nc(F)cnc1NS(=O)(=O)c1cccc(Cl)c1C` [Example 7, 3-Chloro-N-(5-fluoro-3-methoxypyrazin-2-yl)-2-methyl-benzenesulfonamide], the “Whole Blood Potency” value in data set [2] was 6.0. For the same molecule, the fraction unbound at 10 µM in data set [3] was 0.004. Moreover, the IC50 in data set [4] was 3.98 nM.
